Series [1] has as its system Sab expression. Nature of the series: In-cell western for SAB expression in SH-SY5Y cells treated with 6-OHDA. The conditions noted are these: increasing sub-chronic doses of 6-OHDA (0-100.00 nM, 24 hours). The series is classed as cell-based, human. As to the method: Cells or tissue samples are placed in a fluorescent compatible plate (for example, a 96-well plate) and the sample can be fixed to the plate. The sample is then permeabilized using detergent to disrupt the plasma membrane. Primary antibodies to detect SAB (Abnova, Inc.) are then incubated with the samples. Following a brief wash, the cells are incubated with a fluorescently labeled secondary antibody used to recognize the primary antibody. The samples are washed again. The plate is then scanned on a Li-Cor Bioscience Odyssey CLx near-infrared scanner to measure the fluorescent signal from the sample. A high fluorescent signaling indicates a higher level of SAB protein, while a low fluorescence signal indicates a lower level of SAB protein.
An in-cell western allows detection of protein levels in cells cultured in a 96-well black walled plate. For this technique, the cells are fixed with paraformaldehyde following seeding and growth to 80% confluency. […] Using the LiCor Odyssey CLx near infrared imager, the relative amounts of protein in each well are quantified. […]
An example of in-cell western technology for the detection of SAB is shown in (FIG. 3). […] In a model of cytotoxicity, SH-SY5Y cells treated with increasing sub-chronic doses of the neurotoxin, 6-hydroxydopamine (6-OHDA) were seeded in a 96-well plate and monitored for SAB expression.

Series [2] has as its system SAB. Nature of the series: SAB levels in rats injected with 6-OHDA (ventral midbrain western blot, blood cells). The series is classed as in vivo, rat. An excerpt:
Parkinson's disease-like state was induced in animals by localizing treatment to the ventral midbrains of rats using 6-hydroxydopamine. Blood was obtained from 6-hydroxydopamine treated rats and the control rats. Levels of SAB protein or RNA encoding SAB proteins in platelets and other blood cells were higher in 6-hydroxydopamine treated rats compared to control rats.
Further, disruption of SAB-mediated signaling using a small peptide to block kinase binding to SAB prevented 6-OHDA-induced motor deficiencies in rats (FIG. 8).

For series [3] the following is noted: patients; cited from earlier work.
Series [4] concerns SAB. Nature of the series: SAB levels in response to chronic cytotoxic processes. The note with it: treatment with CCCP.
In series [5] the test system is HeLa cells. Nature of the series: Calculation of paclitaxel and cisplatin IC50s by TO-PRO-3 staining. The series is classed as cell-based, human. The method, then: LY294002 was solubilized in dimethylformamide (DMF). HeLa cells were exposed to the indicated doses of LY294002 over 24 h for acute studies. […] For sub-chronic exposure, cells were dosed with 2 μM LY294002 for seven days. The media was exchanged every 48 h to sustain the drug concentrations.
Briefly, 10,000 cells were plated in a black-walled optically clear bottom 96-well plate. […] The cells were fixed in 4% paraformaldehyde for 25 min at room temperature, and stained with TO-PRO-3 (1 μM) in PBST (150 mM NaCl, 8 mM Na2HPO4, 3 mM KCl, 2 mM KH2PO4, pH 7.4, 0.05% Tween 20). The cells were then washed five times in PBST while gently rocking for 5 min at room temperature. Samples were protected from light during incubations. Assays were visualized on the Li-Cor Odyssey CLx imager, and IC50s were calculated using Graphpad® Prism.
Transient transfections with pLOC plasmids for expression and pLKO.1 plasmids for silencing (Open Biosystems) were used to modulate Sab levels. HeLa cells were plated at a density of 2×10^5 cells per 35-mm dish the day before transfections. Plasmids were mixed with FugeneHD (Promega) at a ratio of 3:1 according to the manufacturer's protocol. Protein levels were monitored by western blot analysis.
(§1) Studies using LY294002 have employed high doses (often >10 μM). […] For acute treatments, cells were dosed with 0.1% DMF or increasing concentrations of LY294002 (2 μM, 10 μM, and 50 μM) for 24 h.

For series [6], the system named is HeLa cells. Nature of the series: LY294002 toxicity / viability of HeLa cells. The series is classed as cell-based, human. The method, then: LY294002 was solubilized in dimethylformamide (DMF). HeLa cells were exposed to the indicated doses of LY294002 over 24 h for acute studies. […] […] The media was exchanged every 48 h to sustain the drug concentrations.
as §1

The test system of series [7] is Sab expression. Nature of the series: Sab expression in LY294002-treated HeLa cells by quantitative western blot. The series is classed as cell-based, human. As to the method: LY294002 was solubilized in dimethylformamide (DMF). HeLa cells were exposed to the indicated doses of LY294002 over 24 h for acute studies. The 24-h IC10 for LY294002 in HeLa cells to be ˜2 μM. For sub-chronic exposure, cells were dosed with 2 μM LY294002 for seven days. The media was exchanged every 48 h to sustain the drug concentrations.
Following 72 h of transfection, cells were lysed and proteins were harvested. Protein concentration was determined using the by Pierce BCA Assay kit. Proteins were resolved by SDS-PAGE, and transferred onto PVDF membranes. Membranes were incubated with Li-Cor Biosciences Odyssey Blocking for at least 1 h at room temperature. The membranes were then incubated with primary antibodies specific for Sab, JNK, p44/42 MAPK (Erk1/2), p38, GAPDH, Actin, Calnexin, TOM20, or α-tubulin at 1:1000 dilutions in blocking buffer. Membranes were washed three times for 5 min in PBST. Membranes were incubated with secondary antibodies in blocking buffer at 1:20,000 for fluorescently conjugated secondary antibodies. Membranes were again washed three times for 5 min in PBST. […]
(§2) Western blot images were acquired using the LI-COR Odyssey CLx imager. Fluorescence signals were acquired for the bands of interest. […]
HeLa cell mitochondria were primed using a sub-chronic (2 μM dose) of LY294002 for seven days. The concentration of SAB was monitored using quantitative western blot analysis on protein lysates taken on days 0, 3, and 7 of LY294002 treatment.
To determine if LY294002 impacted the concentration of JNK signaling on mitochondria, the expression of Sab was measured in HeLa cells in both acute and sub-chronic administration of LY294002. […] As time increased, there was a noticeable increase (˜8-fold) in Sab expression in the LY294002 compared to DMF-treated and untreated cells (FIG. 17B and quantified in FIG. 18B). […] To determine if mitochondrial translocation of JNK occurred during the sub-chronic treatment, mitochondrial isolates were analyzed for the presence of JNK on days 3 and 4 (the days of maximal JNK activation). […]
On the technique in general: In western blotting, separated proteins are transferred to a membrane and probed.

The next series concerns JNK. Nature of the series: JNK activation and mitochondrial JNK in LY294002-treated HeLa cells by western blot. It counts as cell-based, human. The method, then: Following 72 h of transfection, cells were lysed and proteins were harvested. Protein concentration was determined using the by Pierce BCA Assay kit. Proteins were resolved by SDS-PAGE, and transferred onto PVDF membranes. Membranes were incubated with Li-Cor Biosciences Odyssey Blocking for at least 1 h at room temperature. The membranes were then incubated with primary antibodies specific for Sab, JNK, p44/42 MAPK (Erk1/2), p38, GAPDH, Actin, Calnexin, TOM20, or α-tubulin at 1:1000 dilutions in blocking buffer. Membranes were washed three times for 5 min in PBST. Membranes were incubated with secondary antibodies in blocking buffer at 1:20,000 for fluorescently conjugated secondary antibodies. Membranes were again washed three times for 5 min in PBST. Western blots were developed using the Odyssey CLx imager (Li-Cor Biosciences).
Mitochondria were isolated from HeLa cells. […]
as §2
To determine if LY294002 impacted the concentration of JNK signaling on mitochondria, the expression of Sab was measured in HeLa cells in both acute and sub-chronic administration of LY294002. […] As time increased, there was a noticeable increase (˜8-fold) in Sab expression in the LY294002 compared to DMF-treated and untreated cells (FIG. 17B and quantified in FIG. 18B). […]

Series [8] concerns SK-OV-3 ovarian cancer cells. Nature of the series: Paclitaxel sensitivity of SK-OV-3 cells over-expressing SH3BP5. The conditions noted are these: paclitaxel following 48 hours of transfection. It counts as cell-based, human.

Entries after “also recorded” stand apart in the source; their conditions may differ. Read-outs that look alike come from different tables or passages of the source.

As a reminder, the IC50 is the midpoint of a concentration-inhibition curve.

With `NCCc1cc(O)c(O)cc1O` [6-OHDA, 6-hydroxydopamine], the SAB expression result in the series with Sab expression [1] is on record as “elevates SAB expression; also recorded: increased in a dose-dependent manner”. Moreover, in the series with SAB [2] (6-hydroxydopamine treated rats compared to control rats), the “Levels of SAB protein or RNA encoding SAB proteins in platelets and other blood cells” value is listed as “higher”. In the series on SAB [2] (rats stereotactically injected with 6-OHDA versus saline, six days post-injection), the “SAB levels in ventral midbrain” value is reported as “SAB levels increase; also recorded: elevated”.

As for `Sc1ncnc2nc[nH]c12` [6-mercaptopurine], the “Doses that can induce hepatotoxicity” value in series [3] is given as “greater than 2 mg/kg”.

For the compound `N#CC(C#N)=NNc1cccc(Cl)c1` [CCCP, carbonylcyanide m-chlorophenylhydrazone], the SAB levels result in the series with SAB [4] was “increased”.

Turning to `N.N.[Cl][Pt][Cl]` [Cisplatin], the IC50 is 0.0073 µM in the series with HeLa cells [5] (read-out: Cisplatin IC50, Sab shRNA#2 + Sab:shRNA^r (rescue)); 0.0121 µM in the series on HeLa cells [5] (read-out: Cisplatin IC50, gene silencing, Sab shRNA#1); 0.0188 µM with HeLa cells [5] (read-out: Cisplatin IC50, gene silencing, Sab shRNA#2); 0.0039 µM with HeLa cells [5] (read-out: Cisplatin IC50, gene silencing, control shRNA); 0.00054 µM in the series with HeLa cells [5] (read-out: Cisplatin IC50, sub-chronic (7 days) 2 μM LY294002); 0.0032 µM in the series on HeLa cells [5] (read-out: Cisplatin IC50, untreated).

As to `O=c1cc(N2CCOCC2)oc2c(-c3ccccc3)cccc12` [LY294002, 2-Morpholin-4-yl-8-phenylchromen-4-one], the HeLa cell viability result was “little impact” in the series with HeLa cells [6] (2 μM LY294002, seven days); “lethal” in the series on HeLa cells [6] (10 μM and 50 μM LY294002, seven days). The “24-h IC10 for LY294002” value in the series with HeLa cells [6] (HeLa cells, 24 h) is around 2 µM. The “Increase in Sab expression compared to DMF-treated and untreated cells” value in the series on Sab expression [7] (2 μM LY294002, 7 days) is given as around 8 fold. For the same compound, the “SAB expression (in words)” value in the series on Sab expression [7] (2 μM LY294002 for seven days) is given as “pronounced increase; also recorded: significant increase; also recorded: increased SH3BP5 expression”. Besides, the “Sab expression versus 0.1% DMF and untreated controls” value in the series with Sab expression [7] (2 μM, 10 μM and 50 μM LY294002 over 24 h) is on record as “neither condition increased Sab expression”. Further, in the series with JNK (2 μM LY294002, between days 2 and 4), the “Increase in phospho-JNK levels” value is “over 10 fold”. For the same compound, the “JNK levels on mitochondria” value in the series on JNK (2 μM LY294002, between days 3 and 4) is recorded as “increased”.

Take `CC(=O)O[C@H]1C(=O)[C@@]2(C)[C@H]([C@H](OC(=O)c3ccccc3)[C@]3(O)C[C@H](OC(=O)[C@H](O)[C@@H](NC(=O)c4ccccc4)c4ccccc4)C(C)=C1C3(C)C)[C@]1(OC(C)=O)CO[C@@H]1C[C@@H]2O` [Paclitaxel]: the IC50 was 14.1 µM in the series with HeLa cells [5] (Homo sapiens, HeLa, 24 h, acute (24 h) 2 μM LY294002, read-out: Paclitaxel IC50); 6.3 µM in the series with HeLa cells [5] (Homo sapiens, HeLa, 24 h, acute (24 h) 10 μM LY294002, read-out: Paclitaxel IC50); 1.9 µM in the series on HeLa cells [5] (Homo sapiens, HeLa, 24 h, acute (24 h) 50 μM LY294002, read-out: Paclitaxel IC50); 1.9 µM in the series with HeLa cells [5] (Homo sapiens, HeLa, 24 h, acute (24 h) 50 μM LY294002, read-out: Paclitaxel IC50 (as worded in text)); 13.6 µM with HeLa cells [5] (Homo sapiens, HeLa, 24 h, acute (24 h) 0.1% DMF, read-out: Paclitaxel IC50); 5.1 µM in the series with HeLa cells [5] (Homo sapiens, HeLa, 168 h, sub-chronic (7 days) 2 μM LY294002, read-out: Paclitaxel IC50). Also, the IC50 in the series on HeLa cells [5] (Homo sapiens, HeLa, 168 h, sub-chronic (7 days) 0.1% DMF, read-out: Paclitaxel IC50) is 13.9 µM; in the series with HeLa cells [5] (Homo sapiens, HeLa, Sab shRNA#2 + Sab:shRNA^r (rescue), read-out: Paclitaxel IC50), 28 µM; in the series with HeLa cells [5] (Homo sapiens, HeLa, ectopic expression of RFP, read-out: Paclitaxel IC50), 13.4 µM; in the series with HeLa cells [5] (Homo sapiens, HeLa, ectopic expression of Sab, read-out: Paclitaxel IC50), 4.7 µM; in the series with HeLa cells [5] (Homo sapiens, HeLa, ectopic expression of Sab: KIM1/2-L/A, read-out: Paclitaxel IC50), 13.8 µM; in the series on HeLa cells [5] (Homo sapiens, HeLa, gene silencing, Sab shRNA#1, read-out: Paclitaxel IC50), 61.8 µM. Further, the IC50 in the series with HeLa cells [5] (Homo sapiens, HeLa, gene silencing, Sab shRNA#2, read-out: Paclitaxel IC50) is 73.4 µM; with HeLa cells [5] (Homo sapiens, HeLa, gene silencing, control shRNA, read-out: Paclitaxel IC50), 15.3 µM; with HeLa cells [5] (Homo sapiens, HeLa, untreated, read-out: Paclitaxel IC50), 14.7 µM. In addition, the “Decrease in the IC50 of paclitaxel on increasing Sab expression” value in the series on HeLa cells [5] (pLOC:Sab versus untreated, mock-transfected or RFP cells) is 5 fold. Also, the “Sensitivity to paclitaxel of SH3BP5 over-expressing cells compared to mock and D-AKAP1 over-expressing cells” value in [8] stood at 2.5 times.

These data come from patent US10078090B2, “SAB as a biomarker for degenerative diseases and therapeutic sensitivity in cancers” (The Florida International University Board of Trustees, priority 2014, dated 2018).
